Test results taken from US9309242B2, “Substituted pyrido[2,3-b]pyrazines as FGFR kinase inhibitors” (priority 2011, dated 2016).

Assays:
FGFR2 (h) = FGFR2 (h) (Homo sapiens, UniProt P21802); assay: FGFR2 (enzymatic assay), TR-FRET; assay type: biochemical; conditions: enzymatic assay; read-out: FGFR 2 pIC50 (converted)
Method in brief: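 At low ATP (0.4 μM), enzyme activity of human FGFR2 (150 ng/ml) toward biotinylated Flt3 substrate (500 nM) was followed with test compound present. Reactions ran in 50 mM HEPES pH 7.5, 6 mM MnCl2, 1 mM DTT, 0.1 mM Na3VO4, 0.01% Triton-X-100, 1% DMSO.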

[1] = molecular target: T1, Ba/F3-FGFR3-transfected cells (Homo sapiens, UniProt P22607); assay: Ba/F3-FGFR3 (minus IL3) cellular proliferation assay, Alamar Blue; assay type: cell-based
T1 construct: BAF3-FGFR3 (MIN IL3) pIC50; other: minus IL3
T1 sequence (P22607 whole entry, change not shown): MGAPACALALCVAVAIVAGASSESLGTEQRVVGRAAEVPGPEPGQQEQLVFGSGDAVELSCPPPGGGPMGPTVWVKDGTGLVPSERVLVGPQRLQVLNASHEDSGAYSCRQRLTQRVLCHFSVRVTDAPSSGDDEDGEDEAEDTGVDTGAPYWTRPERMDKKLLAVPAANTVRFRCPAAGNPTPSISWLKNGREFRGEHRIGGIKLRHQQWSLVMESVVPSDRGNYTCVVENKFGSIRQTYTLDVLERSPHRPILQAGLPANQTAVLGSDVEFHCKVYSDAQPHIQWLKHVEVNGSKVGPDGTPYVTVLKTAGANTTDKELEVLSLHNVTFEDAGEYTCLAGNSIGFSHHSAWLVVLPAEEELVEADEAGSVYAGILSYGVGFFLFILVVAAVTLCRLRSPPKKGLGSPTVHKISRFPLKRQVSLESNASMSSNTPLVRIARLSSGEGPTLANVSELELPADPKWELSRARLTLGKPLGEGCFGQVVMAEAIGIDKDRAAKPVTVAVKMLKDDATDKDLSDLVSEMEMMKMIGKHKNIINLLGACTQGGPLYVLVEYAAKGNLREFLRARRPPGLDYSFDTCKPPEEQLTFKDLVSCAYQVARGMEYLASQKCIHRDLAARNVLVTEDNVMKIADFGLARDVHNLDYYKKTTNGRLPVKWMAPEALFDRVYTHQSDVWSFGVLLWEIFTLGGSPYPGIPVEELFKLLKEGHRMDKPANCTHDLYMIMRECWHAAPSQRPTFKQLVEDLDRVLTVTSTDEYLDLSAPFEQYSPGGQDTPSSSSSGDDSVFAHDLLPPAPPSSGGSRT
Method in brief: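 Viability readout was resazurin reduction (ex 540/em 590 nm) after 4 h, following 24 h compound treatment at 37 °C of FGFR3-transfected Ba/F3 cells (20000/well, RPMI-1640/10% FBS). IL3-dependent counterscreen used identical conditions plus 10 ng/ml murine IL3.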

[2] = molecular target: Ba/F3-FGFR4-transfected cells (Homo sapiens, UniProt P22455); assay: Ba/F3-FGFR4 cellular proliferation assay, Alamar Blue; assay type: cell-based
Chain of Ba/F3-FGFR4-transfected cells (P22455 whole entry, change not shown): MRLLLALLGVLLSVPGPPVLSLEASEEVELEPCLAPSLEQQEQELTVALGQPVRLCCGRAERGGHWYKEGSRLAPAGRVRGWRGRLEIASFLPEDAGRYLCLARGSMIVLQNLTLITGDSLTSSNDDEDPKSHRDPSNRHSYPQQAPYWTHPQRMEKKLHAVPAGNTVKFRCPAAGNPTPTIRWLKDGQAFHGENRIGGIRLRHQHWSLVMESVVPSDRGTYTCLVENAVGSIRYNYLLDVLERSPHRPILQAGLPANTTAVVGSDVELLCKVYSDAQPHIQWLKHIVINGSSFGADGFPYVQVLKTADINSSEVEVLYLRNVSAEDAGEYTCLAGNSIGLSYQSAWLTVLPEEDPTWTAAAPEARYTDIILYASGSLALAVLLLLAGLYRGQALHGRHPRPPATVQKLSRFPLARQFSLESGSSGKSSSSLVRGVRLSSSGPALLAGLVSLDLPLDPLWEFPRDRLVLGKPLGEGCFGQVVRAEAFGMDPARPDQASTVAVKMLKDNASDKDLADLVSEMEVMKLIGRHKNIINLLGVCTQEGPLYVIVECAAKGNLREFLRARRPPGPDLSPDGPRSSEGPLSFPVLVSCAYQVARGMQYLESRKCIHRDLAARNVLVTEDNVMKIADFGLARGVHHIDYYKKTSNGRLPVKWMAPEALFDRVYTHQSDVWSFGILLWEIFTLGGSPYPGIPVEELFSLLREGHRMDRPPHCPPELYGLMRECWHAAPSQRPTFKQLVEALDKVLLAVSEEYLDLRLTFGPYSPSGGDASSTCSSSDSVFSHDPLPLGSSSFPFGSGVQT
Method in brief: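 Proliferation is measured by resazurin reduction: after 24 h compound treatment at 37 °C in RPMI-1640/10% FBS, cells get Alamar Blue for 4 h before RFU read (540/590 nm). Each well holds 20000 Ba/F3-FGFR4-transfected cells.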

FGFR1 (h) = FGFR1 (h) (Homo sapiens, UniProt P11362); assay: FGFR1 (enzymatic assay), TR-FRET; assay type: biochemical; conditions: read-out: FGFR 1 pIC50 (converted)
Chain of FGFR1 (h) (P11362 22-822): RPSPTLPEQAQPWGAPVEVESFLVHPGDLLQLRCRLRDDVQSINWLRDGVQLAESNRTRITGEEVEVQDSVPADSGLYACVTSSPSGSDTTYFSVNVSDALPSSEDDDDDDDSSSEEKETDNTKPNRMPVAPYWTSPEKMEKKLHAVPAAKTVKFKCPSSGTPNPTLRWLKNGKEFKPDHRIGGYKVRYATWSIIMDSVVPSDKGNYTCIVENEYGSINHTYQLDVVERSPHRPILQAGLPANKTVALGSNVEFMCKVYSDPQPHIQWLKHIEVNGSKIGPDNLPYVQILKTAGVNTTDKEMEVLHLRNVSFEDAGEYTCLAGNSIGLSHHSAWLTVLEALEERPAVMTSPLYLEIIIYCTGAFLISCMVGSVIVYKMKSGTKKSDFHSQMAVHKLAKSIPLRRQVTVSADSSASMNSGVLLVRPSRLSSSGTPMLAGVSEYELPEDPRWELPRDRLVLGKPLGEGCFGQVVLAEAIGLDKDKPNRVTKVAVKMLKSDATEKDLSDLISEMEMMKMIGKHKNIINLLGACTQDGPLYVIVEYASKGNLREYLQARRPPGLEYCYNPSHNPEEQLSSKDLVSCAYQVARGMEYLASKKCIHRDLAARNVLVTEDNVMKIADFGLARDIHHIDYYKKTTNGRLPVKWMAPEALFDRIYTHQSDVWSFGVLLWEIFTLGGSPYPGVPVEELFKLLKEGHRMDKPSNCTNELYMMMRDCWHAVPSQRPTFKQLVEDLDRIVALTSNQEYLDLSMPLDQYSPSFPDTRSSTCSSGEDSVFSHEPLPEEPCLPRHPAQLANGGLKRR

[3] = molecular target: T2, Ba/F3-KDR-transfected cells (Homo sapiens, UniProt P35968); assay: Ba/F3-KDR (minus IL3) cellular proliferation assay, Alamar Blue; assay type: cell-based
T2 construct: BAF3-KDR (MIN IL3) pIC50; other: minus IL3
Method in brief: (§1)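 Proliferation read-out by Alamar Blue fluorescence (ex. 540 nm, em. 590 nm) after 4 hours, following 24 hours of compound treatment at 37° C of 20000 Ba/F3-KDR cells per well in RPMI-1640/10% FBS. Same protocol with 10 ng/ml murine IL3 serves as counterscreen.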

[4] = molecular target: T3, Ba/F3-FGFR1-transfected cells (Homo sapiens, UniProt P11362); assay: Ba/F3-FGFR1 (minus IL3) cellular proliferation assay, Alamar Blue; assay type: cell-based
T3 construct: BAF3-FGFR1 (MIN IL3) pIC50; other: minus IL3
T3 sequence (P11362 whole entry, change not shown): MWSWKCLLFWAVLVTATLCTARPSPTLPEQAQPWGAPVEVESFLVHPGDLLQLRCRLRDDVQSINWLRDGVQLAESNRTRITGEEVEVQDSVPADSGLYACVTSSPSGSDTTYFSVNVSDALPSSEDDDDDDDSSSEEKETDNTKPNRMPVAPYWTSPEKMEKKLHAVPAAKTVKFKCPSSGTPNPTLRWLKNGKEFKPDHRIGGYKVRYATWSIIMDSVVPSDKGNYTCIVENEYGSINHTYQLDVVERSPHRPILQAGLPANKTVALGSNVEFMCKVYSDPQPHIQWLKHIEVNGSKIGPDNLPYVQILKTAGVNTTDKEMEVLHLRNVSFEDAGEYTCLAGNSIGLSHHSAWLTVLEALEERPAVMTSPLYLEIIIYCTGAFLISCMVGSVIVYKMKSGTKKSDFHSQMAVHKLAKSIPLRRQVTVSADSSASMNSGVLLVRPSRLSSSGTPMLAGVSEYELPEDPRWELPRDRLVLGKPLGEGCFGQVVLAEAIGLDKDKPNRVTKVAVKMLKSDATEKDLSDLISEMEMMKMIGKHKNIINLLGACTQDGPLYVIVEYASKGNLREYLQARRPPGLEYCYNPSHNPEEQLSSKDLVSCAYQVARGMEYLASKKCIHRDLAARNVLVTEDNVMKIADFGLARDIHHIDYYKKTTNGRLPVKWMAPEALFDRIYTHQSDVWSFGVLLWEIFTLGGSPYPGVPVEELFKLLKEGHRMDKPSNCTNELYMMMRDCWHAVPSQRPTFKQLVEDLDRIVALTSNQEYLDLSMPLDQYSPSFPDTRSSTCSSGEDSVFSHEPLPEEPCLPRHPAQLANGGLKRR
Method in brief: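 Viability was measured by resazurin reduction (fluorescence, 540 nm excitation/590 nm emission) after a 4 h Alamar Blue incubation. This followed 24 h of compound treatment at 37 °C, 5% CO2, of 20000 FGFR1-transfected Ba/F3 cells per well in 10% FBS RPMI-1640.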

[5] = test system: Ba/F3-FGFR1-transfected cells; assay: Ba/F3-FGFR1 (plus IL3) cellular proliferation assay, counterscreen with 10 ng/ml murine IL3; assay type: cell-based; conditions: plus IL3 (10 ng/ml murine IL3, counterscreen); read-out: BAF3-FGFR1 (PLUS IL3) pIC50 (converted)
Method in brief: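 Proliferation read-out: resazurin-based Alamar Blue fluorescence (540/590 nm) after 4 h, following 24 h compound treatment of 20000 Ba/F3-FGFR1 cells per well in 10% FBS RPMI at 37° C. IL3 counterscreen used the same protocol plus 10 ng/ml murine IL3.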

[6] = test system: Ba/F3-KDR-transfected cells; assay: Ba/F3-KDR (plus IL3) cellular proliferation assay, counterscreen with 10 ng/ml murine IL3; assay type: cell-based; conditions: plus IL3 (10 ng/ml murine IL3, counterscreen); read-out: BAF3-KDR (PLUS IL3) pIC50 (converted)
Method in brief: as §1

FGFR3 (h) = FGFR3 (h) (Homo sapiens, UniProt P22607); assay: FGFR3 (enzymatic assay), TR-FRET; assay type: biochemical; conditions: read-out: FGFR 3 pIC50 (converted)
Chain of FGFR3 (h) (P22607 23-806): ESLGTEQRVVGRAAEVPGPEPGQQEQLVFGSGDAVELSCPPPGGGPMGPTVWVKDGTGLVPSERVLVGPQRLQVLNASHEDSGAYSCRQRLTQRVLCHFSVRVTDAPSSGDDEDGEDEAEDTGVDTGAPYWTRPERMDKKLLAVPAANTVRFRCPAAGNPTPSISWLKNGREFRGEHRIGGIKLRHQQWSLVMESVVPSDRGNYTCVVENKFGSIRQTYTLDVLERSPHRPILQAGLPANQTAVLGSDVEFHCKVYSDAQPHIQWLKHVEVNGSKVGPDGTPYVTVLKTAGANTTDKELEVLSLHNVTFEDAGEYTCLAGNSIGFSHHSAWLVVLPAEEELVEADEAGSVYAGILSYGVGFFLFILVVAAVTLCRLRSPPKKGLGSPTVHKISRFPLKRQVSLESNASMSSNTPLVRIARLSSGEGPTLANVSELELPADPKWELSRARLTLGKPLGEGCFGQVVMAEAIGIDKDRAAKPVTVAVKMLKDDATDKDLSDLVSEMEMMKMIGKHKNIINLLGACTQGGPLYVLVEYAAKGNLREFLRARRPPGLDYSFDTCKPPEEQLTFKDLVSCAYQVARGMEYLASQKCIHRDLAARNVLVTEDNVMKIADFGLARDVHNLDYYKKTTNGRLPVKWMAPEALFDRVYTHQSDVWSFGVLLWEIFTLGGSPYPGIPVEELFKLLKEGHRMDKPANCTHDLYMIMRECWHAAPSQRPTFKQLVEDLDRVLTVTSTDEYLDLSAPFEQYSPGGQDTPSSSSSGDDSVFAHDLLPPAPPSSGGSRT
Source text: Time-Resolved Fluorescence Resonance Energy Transfer (TR-FRET) signal (ex340 nm.

Chain of FGFR2 (h) (P21802 22-821): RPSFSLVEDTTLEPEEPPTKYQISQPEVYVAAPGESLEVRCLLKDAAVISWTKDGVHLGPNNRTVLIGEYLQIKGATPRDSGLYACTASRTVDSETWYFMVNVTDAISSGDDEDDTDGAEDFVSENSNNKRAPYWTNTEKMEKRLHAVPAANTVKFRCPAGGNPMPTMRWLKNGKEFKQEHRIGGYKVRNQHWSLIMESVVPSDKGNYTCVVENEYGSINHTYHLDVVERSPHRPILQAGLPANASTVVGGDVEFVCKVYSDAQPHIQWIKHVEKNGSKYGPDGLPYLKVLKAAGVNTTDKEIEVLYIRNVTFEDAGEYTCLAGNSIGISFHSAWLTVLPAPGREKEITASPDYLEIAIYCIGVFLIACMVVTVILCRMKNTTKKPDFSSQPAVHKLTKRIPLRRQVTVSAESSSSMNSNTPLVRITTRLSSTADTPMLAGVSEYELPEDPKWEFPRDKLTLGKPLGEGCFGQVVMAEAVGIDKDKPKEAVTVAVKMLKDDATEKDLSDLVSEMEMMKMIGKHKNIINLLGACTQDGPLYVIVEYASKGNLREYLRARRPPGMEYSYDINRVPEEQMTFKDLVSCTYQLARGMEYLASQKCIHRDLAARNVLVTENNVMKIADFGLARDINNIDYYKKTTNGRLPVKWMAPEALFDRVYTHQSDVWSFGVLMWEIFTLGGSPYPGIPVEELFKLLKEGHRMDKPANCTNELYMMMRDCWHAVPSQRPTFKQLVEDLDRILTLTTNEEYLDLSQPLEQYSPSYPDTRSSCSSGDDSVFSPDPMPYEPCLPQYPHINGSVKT

SMILES	IC50 (FGFR2 (h))	BAF3-FGFR3 (MIN IL3) pIC50 [1]	BAF3-FGFR4 pIC50 [2]	IC50 (FGFR1 (h))	BAF3-KDR (MIN IL3) pIC50 [3]	BAF3-FGFR1 (MIN IL3) pIC50 [4]	IC50 [5]	IC50 [6]	IC50 (FGFR3 (h))
COc1cc(OC)c(F)c(/N=c2\ccc3ncc(-c4cnn(C)c4)nc3n2CCN(C2COC2)C2COC2)c1F [Compound 164]	1.82 nM	7.89	~7.66	1.02 nM	6.86	8.01	> 10000 nM	> 10000 nM	0.933 nM
COc1cc(OC)c(F)c(N(CC2CCC(=O)N2CCO)c2ccc3ncc(-c4cnn(C)c4)nc3n2)c1 (stereo not drawn) [Compound 194]	12 nM	6.16	5.50	11.2 nM	5.18	6.30	> 10000 nM	> 10000 nM	8.51 nM
COc1cc(OC)c(F)c(N(Cc2ncc[nH]2)c2ccc3ncc(-c4ccncc4)nc3n2)c1 [Compound 211]	~2.34 nM	~8.11	7.29	1 nM	5.82	8.08	> 10000 nM	> 10000 nM	1.51 nM
COc1cc(OC)cc(N(Cc2n[nH]c(=O)o2)c2ccc3ncc(-c4cnn(C)c4)nc3n2)c1 [Compound 229]	5.62 nM	6.05	5.45	4.9 nM	<5	5.97	> 10000 nM	> 10000 nM	4.07 nM
COc1cc(OC)cc(N(Cc2noc(C)n2)c2ccc3ncc(-c4cnn(C)c4)nc3n2)c1 [Compound 186]	2.57 nM	~7.11	6.36	2.45 nM	5.20	7.03	> 10000 nM	> 10000 nM	2.69 nM
COC(=O)CN(c1ccc2ncc(-c3cnn(C)c3)nc2n1)c1cc(OC)cc(OC)c1F [Compound 214]	2.57 nM	~7.18	6.52	2.4 nM	5.31	7.08	> 10000 nM	> 10000 nM	2.4 nM
COc1cc(OC)c(F)c(N(Cc2ncc[nH]2)c2ccc3ncc(-c4cn[nH]c4)nc3n2)c1 [Compound 190]	1.29 nM	~8.15	8.08	0.617 nM	6.46	8.19	> 10000 nM	> 10000 nM	1.23 nM
COc1cc(OC)cc(N(CCN2CCOCC2)c2ccc3ncc(-c4cnn(C)c4)nc3n2)c1 [Compound 146]	4.68 nM	~7.14	~6.58	6.76 nM	5.28	6.87	> 10000 nM	> 10000 nM	4.9 nM
COc1cc(OC)cc(N(CCN2CCCC2=O)c2ccc3ncc(-c4cnn(C)c4)nc3n2)c1 [Compound 151]	15.1 nM	5.72	5.49	38.9 nM	<5	5.56	> 10000 nM	> 10000 nM	10.7 nM
COc1cc(OC)c(F)c(N(Cc2nccn2CCO)c2ccc3ncc(-c4cnn(C)c4)nc3n2)c1 [Compound 145]	3.8 nM	7.04	6.61	3.24 nM	5.63	7.26	> 10000 nM	> 10000 nM	4.68 nM
COc1cc(OC)c(F)c(N(Cc2nc(OC)cc(OC)n2)c2ccc3ncc(-c4cnn(C)c4)nc3n2)c1 [Compound 220]	6.92 nM	5.91	5.83	4.17 nM	5.22	6.32	> 10000 nM	> 10000 nM	9.33 nM
COc1cc(OC)c(F)c(N(Cc2cnn(C)c2)c2ccc3ncc(-c4cnn(C)c4)nc3n2)c1 [Compound 195]	2.04 nM	8.09	7.33	0.589 nM	5.79	8.08	> 10000 nM	> 10000 nM	0.871 nM
COc1cc(OC)c(F)c(N(Cc2nc(CO)c[nH]2)c2ccc3ncc(-c4cnn(C)c4)nc3n2)c1 [Compound 232]	~2.75 nM	7.81	6.96	0.813 nM	5.83	7.45	> 10000 nM	> 10000 nM	1.29 nM
COc1cc(OC)c(F)c(N(CC(=O)NCCO)c2ccc3ncc(-c4cnn(C)c4)nc3n2)c1 [Compound 230]	7.41 nM	6.18	5.73	7.59 nM	5.04	6.09	> 10000 nM	> 10000 nM	7.94 nM
CCOCc1c[nH]c(CN(c2ccc3ncc(-c4cnn(C)c4)nc3n2)c2cc(OC)cc(OC)c2F)n1 [Compound 206]	4.17 nM	~8.12	7.34	1.38 nM	5.84	7.89	> 10000 nM	> 10000 nM	2.51 nM
